Results taken from ChEMBL document CHEMBL1132362, “Synthesis of 5-(carboranylalkylmercapto)-2'-deoxyuridines and 3-(carboranylalkyl)thymidines and their evaluation as substrates for human thymidine kinases 1 and 2” (J Med Chem, 1999).

Tested on: Thymidine Kinase (TK1)
Assay: Kinetic constant Km for Thymidine Kinase (TK1)
Type: ADME

Cc1cn([C@H]2C[C@H](O)[C@@H](CO)O2)c(=O)[nH]c1=O [DOXRIBTIMINE]
Km: 1 µM
